# Test system: WT Mtb Erdman strain
# Assay: Microplate Alamar Blue Assay (MABA), Mtb growth inhibition
# Assay type: cell-based, Mycobacterium tuberculosis
# Settings: Mycobacterium tuberculosis, ERDMAN, 168 h, Middlebrook 7H9 media, 7 days at 37° C. in 5% CO2
row,Structure (SMILES),IC50 [nM]
1,"Cc1cc2c(NCCCc3ccc(-c4ccc([N+](=O)[O-])cc4)cc3)nc(-c3cc[nH]c3)nc2s1 [Example 569, 6-methyl-N-(3-(4′-nitro-[1,1′-biphenyl]-4-yl)propyl)-2-(1H-pyrrol-3-yl)thieno[2,3-d]pyrimidin-4-amine]",70
2,"Cc1cc2c(NCCCc3ccc(-c4ccc(C(F)(F)F)cn4)cc3)nc(-c3cc[nH]c3)nc2s1 [Example 570, 6-methyl-2-(1H-pyrrol-3-yl)-N-(3-(4-(5-(trifluoromethyl)pyridin-2-yl)phenyl)propyl)thieno[2,3-d]pyrimidin-4-amine]",230
3,"FC(F)(F)Oc1ccc(-c2ccc(CCCNc3nc(-c4ccc[nH]4)nc4sccc34)cc2)cc1 [Example 574, 2-(1H-pyrrol-2-yl)-N-(3-(4′-(trifluoromethoxy)-[1,1′-biphenyl]-4-yl)propyl)thieno[2,3-d]pyrimidin-4-amine]",> 520
4,"Cc1cc2c(NCCCc3ccc(-c4cnc(N5CCCC5)cn4)cc3)nc(N3CCCC3)nc2s1 [Example 575, 6-methyl-2-(pyrrolidin-1-yl)-N-(3-(4-(5-(pyrrolidin-1-yl)pyrazin-2-yl)phenyl)propyl)thieno[2,3-d]pyrimidin-4-amine]",91
5,"CCc1nc(NC(=O)CCCc2ccccc2)c2cc(C)sc2n1 [Example 576, N-(2-ethyl-6-methylthieno[2,3-d]pyrimidin-4-yl)-4-phenylbutanamide]",3400
6,"Cc1cc2c(NC(=O)CCc3ccccc3)nc(-c3ccoc3)nc2s1 [Example 577, N-(2-(furan-3-yl)-6-methylthieno[2,3-d]pyrimidin-4-yl)-3-phenylpropanamide]",71
7,"Cc1cc2c(NCCCc3ccccc3)nc(S(C)(=O)=O)nc2s1 [Example 578, 6-methyl-2-(methylsulfonyl)-N-(3-phenylpropyl)thieno[2,3-d]pyrimidin-4-amine]",4000
8,"Cc1cc2c(NCCCc3ccccc3)nc(C(=O)O)nc2s1 [Example 579, 6-methyl-4-((3-phenylpropyl)amino)thieno[2,3-d]pyrimidine-2-carboxylic acid]",> 10000
9,"Cc1cc2c(NCCCc3ccccc3)nc(OC(F)F)nc2s1 [Example 580, 2-(difluoromethoxy)-6-methyl-N-(3-phenylpropyl)thieno[2,3-d]pyrimidin-4-amine]",> 10000
10,"Cc1cc2c(NCCCc3ccccc3)nc([S+](C)[O-])nc2s1 (stereo not drawn) [Example 581, 6-methyl-2-(methylsulfinyl)-N-(3-phenylpropyl)thieno[2,3-d]pyrimidin-4-amine]",1300
11,"C=C(C)c1nc(NCCCc2ccccc2)c2cc(C)sc2n1 [Example 582, 6-methyl-N-(3-phenylpropyl)-2-(prop-1-en-2-yl)thieno[2,3-d]pyrimidin-4-amine]",170
12,"Cc1nc(NCCCc2ccccc2)c2nc(Cl)sc2n1 [Example 583, 2-chloro-5-methyl-N-(3-phenylpropyl)thiazolo[5,4-d]pyrimidin-7-amine]",5800
13,"Cc1nc(NCCCc2ccccc2)c2ncsc2n1 [Example 584, 5-methyl-N-(3-phenylpropyl)thiazolo[5,4-d]pyrimidin-7-amine]",> 10000
14,"Cc1cc2c(NCCCc3ccccc3)nc(-n3ccnn3)nc2s1 [Example 586, 6-methyl-N-(3-phenylpropyl)-2-(1H-1,2,3-triazol-1-yl)thieno[2,3-d]pyrimidin-4-amine]",200
15,"Cc1cc2c(NCCCc3ccc(OC(F)(F)F)cc3)nc(-n3ccnn3)nc2s1 [Example 587, 6-methyl-2-(1H-1,2,3-triazol-1-yl)-N-(3-(4-(trifluoromethoxy)phenyl)propyl)thieno[2,3-d]pyrimidin-4-amine]",1100
16,"CCc1nc(NCCCc2ccccc2O)c2cc(C)sc2n1 [Example 588, 2-(3-((2-ethyl-6-methylthieno[2,3-d]pyrimidin-4-yl)amino)propyl)phenol]",4400
17,"Cc1cc2c(NCCCc3ccccc3O)nc(C(F)(F)F)nc2s1 [Example 589, 2-(3-((6-methyl-2-(trifluoromethyl)thieno[2,3-d]pyrimidin-4-yl)amino)propyl)phenol]",> 10000
18,"CCc1nc(NCCCc2ccc(Nc3ccccc3)cc2)c2cc(C)sc2n1 [Example 590, 2-ethyl-6-methyl-N-(3-(4-(phenylamino)phenyl)propyl)thieno[2,3-d]pyrimidin-4-amine]",530
19,"CCc1nc(NCCCc2ccc(N=[N+]=[N-])cc2)c2cc(C)sc2n1 [Example 591, N-(3-(4-azidophenyl)propyl)-2-ethyl-6-methylthieno[2,3-d]pyrimidin-4-amine]",> 10000
20,"Cc1cc2c(NCCCc3ccc(N=[N+]=[N-])cc3)nc(C(F)(F)F)nc2s1 [Example 592, N-(3-(4-azidophenyl)propyl)-6-methyl-2-(trifluoromethyl)thieno[2,3-d]pyrimidin-4-amine]",4400
21,"CCc1nc(NCCCc2ccc(-n3ccnn3)cc2)c2cc(C)sc2n1 [Example 593, N-(3-(4-(1H-1,2,3-triazol-1-yl)phenyl)propyl)-2-ethyl-6-methylthieno[2,3-d]pyrimidin-4-amine]",530
22,"Cc1cc2c(NCCCc3ccc(-c4ccc[nH]4)cc3)nc(-c3ccoc3)nc2s1 [Example 594, 2-(furan-3-yl)-6-methyl-N-(3-[4-(1H-pyrrol-2-yl)phenyl]propyl)thieno[2,3-d]pyrimidin-4-amine]",240
23,"Cc1cc2c(NCCCc3ccc(-c4ccc(OC(F)(F)F)cc4)cc3)nc(OCC(F)(F)F)nc2s1 [Example 596, 6-methyl-2-(2,2,2-trifluoroethoxy)-N-(3-(4′-(trifluoromethoxy)-[1,1′-biphenyl]-4-yl)propyl)thieno[2,3-d]pyrimidin-4-amine]",29
24,"Cc1cc2c(NCCCc3ccc(-c4ccc(OC(F)(F)F)cc4)cc3)nc(SC(F)(F)F)nc2s1 [Example 597, 6-methyl-N-(3-(4′-(trifluoromethoxy)-[1,1′-biphenyl]-4-yl)propyl)-2-((trifluoromethyl)thio)thieno[2,3-d]pyrimidin-4-amine]",6300
25,"Cc1cc2c(NCCCc3ccc(-c4ccc(OC(F)(F)F)cc4)cc3)nc(Br)nc2s1 [Example 598, 2-bromo-6-methyl-N-(3-(4′-(trifluoromethoxy)-[1,1′-biphenyl]-4-yl)propyl)thieno[2,3-d]pyrimidin-4-amine]",81
26,"CC(=O)Nc1nc(NCCCc2ccc(-c3ccc(OC(F)(F)F)cc3)cc2)c2cc(C)sc2n1 [Example 599, N-(6-methyl-4-((3-(4′-(trifluoromethoxy)-[1,1′-biphenyl]-4-yl)propyl)amino)thieno[2,3-d]pyrimidin-2-yl)acetamide]",> 370
27,"Cc1cc2c(NCCCc3ccc(-c4ccc(C(=O)O)cc4)cc3)nc(-c3ccoc3)nc2s1 [Example 601, 4′-(3-((2-(furan-3-yl)-6-methylthieno[2,3-d]pyrimidin-4-yl)amino)propyl)-[1,1′-biphenyl]-4-carboxylic acid]",530
28,"Cc1cc2c(NCCCc3ccc(-c4ccc(OC(F)(F)F)cc4)cc3)nc(-n3ccnn3)nc2s1 [Example 602, 6-methyl-2-(1H-1,2,3-triazol-1-yl)-N-(3-(4′-(trifluoromethoxy)-[1,1′-biphenyl]-4-yl)propyl)thieno[2,3-d]pyrimidin-4-amine]",190
29,"Cc1cc2c(NCCCc3ccc(-n4cccc4)cc3)nc(-c3ccoc3)nc2s1 [Example 604, 2-(furan-3-yl)-6-methyl-N-(3-[4-(1H-pyrrol-1-yl)phenyl]propyl)thieno[2,3-d]pyrimidin-4-amine]",28
30,"Cc1cc2c(NCCCc3ccc(-c4ccc(OC(F)(F)F)cc4)cc3)nc(C#N)nc2s1 [Example 605, 6-methyl-4-((3-[4′-(trifluoromethoxy)-[1,1′-biphenyl]-4-yl]propyl)amino)thieno[2,3-d]pyrimidine-2-carbonitrile]",> 10000

# — patent US20240279236A1, “COMPOUNDS AND METHODS OF TREATING TUBERCULOSIS” (Fimbrion Therapeutics, Inc., priority 2021, published 2024)
